Assay results reported in the supplement of paper PMC10307832.

Legend:
Experiment in all cases: relative viability (nuclei count vs DMSO), 5 days (fraction); higher = more cells survive
[1] = compound: C[C@@H](N)c1ccc(C(=O)Nc2ccnc3[nH]ccc23)cc1 + Cc1nc(Nc2ncc(C(=O)Nc3c(C)cccc3Cl)s2)cc(N2CCN(CCO)CC2)n1 [Dasatinib] (partner 0.075 µM)
In short: (§1)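 For relative viability, nuclei counts in treated wells were divided by those in vehicle wells. Lung cancer cell lines had been pin-tool dosed in 1536-well plates the day after seeding and cultured for 5 days, then fixed and stained in one step (final 0.05% Triton X-100, 1% formaldehyde, 1 ug/ml Hoechst) and imaged at 4×. Doses were one drug alone or a fixed anchor-drug dose plus five library-drug doses (not always all listed) in √10 steps, and values are duplicate-plate medians.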

[2] = compound: C1CNCCC1C2=CC(=NN2)C3=CC=NC=C3 + Cc1nc(Nc2ncc(C(=O)Nc3c(C)cccc3Cl)s2)cc(N2CCN(CCO)CC2)n1 [Dasatinib] (partner 0.075 µM)
In short: as §1

Tanzisertib + Phenformin = compound: O[C@H]1CC[C@H](Nc2ncc3nc(Nc4c(F)cc(F)cc4F)n([C@H]4CCOC4)c3n2)CC1 [Tanzisertib] + N=C(N)NC(=N)NCCc1ccccc1 [Phenformin] (partner 250 µM)
In short: as §1

Tanzisertib + Lapatinib = compound: O[C@H]1CC[C@H](Nc2ncc3nc(Nc4c(F)cc(F)cc4F)n([C@H]4CCOC4)c3n2)CC1 [Tanzisertib] + CS(=O)(=O)CCNCc1ccc(-c2ccc3ncnc(Nc4ccc(OCc5cccc(F)c5)c(Cl)c4)c3c2)o1 [Lapatinib] (partner 2 µM)
In short: as §1

| Cell Line | relative viability ([1]; first compound 0.04 µM) | relative viability ([1]; first compound 0.1265 µM) | relative viability ([1]; first compound 0.4 µM) | relative viability ([1]; first compound 1.265 µM) | relative viability ([1]; first compound 4 µM) | relative viability ([2]; first compound 0.08 µM) | relative viability ([2]; first compound 0.8 µM) | relative viability ([2]; first compound 2.53 µM) | relative viability ([2]; first compound 8 µM) | relative viability (Tanzisertib + Phenformin; first compound 0.08 µM) | relative viability (Tanzisertib + Phenformin; first compound 0.253 µM) | relative viability (Tanzisertib + Phenformin; first compound 0.8 µM) | relative viability (Tanzisertib + Phenformin; first compound 2.53 µM) | relative viability (Tanzisertib + Phenformin; first compound 8 µM) | relative viability (Tanzisertib + Lapatinib; first compound 0.08 µM) | relative viability (Tanzisertib + Lapatinib; first compound 0.253 µM) | relative viability (Tanzisertib + Lapatinib; first compound 0.8 µM) | relative viability (Tanzisertib + Lapatinib; first compound 2.53 µM) | relative viability (Tanzisertib + Lapatinib; first compound 8 µM) |
| --- | --- | --- | --- | --- | --- | --- | --- | --- | --- | --- | --- | --- | --- | --- | --- | --- | --- | --- | --- |
| 201T | 0.667 | 0.635 | 0.674 | 0.738 | 0.808 | 0.62 | 0.561 | 0.602 | 0.602 | 0.454 | 0.501 | 0.477 | 0.459 | 0.386 | 1.04 | 1.02 | 0.997 | 1.02 | 1.07 |
| PC-14 | 0.216 | 0.29 | 0.246 | 0.206 | 0.131 | 0.245 | 0.272 | 0.296 | 0.221 | 0.471 | 0.746 | 0.671 | 0.599 | 0.115 | 0.34 | 0.303 | 0.26 | 0.341 | 0.311 |
| Calu-6 |  |  |  |  |  |  |  |  |  |  |  |  |  |  | 1.14 | 1.11 | 1.07 | 1.05 | 1 |
| NCI-H1703 |  |  |  |  |  |  |  |  |  |  |  |  |  |  | 1.29 | 1.08 | 1.09 | 1.11 | 0.942 |
| NCI-H1650 | 0.42 | 0.402 | 0.428 | 0.39 | 0.311 | 0.262 | 0.257 | 0.356 | 0.35 | 0.317 | 0.425 | 0.407 | 0.307 | 0.314 | 0.958 | 0.759 | 0.838 | 0.842 | 0.331 |
| NCI-H2342 | 0.342 | 0.357 | 0.322 | 0.317 | 0.327 | 0.343 | 0.268 | 0.357 | 0.41 | 0.618 | 0.643 | 0.57 | 0.557 | 0.532 |  |  |  |  |  |
| ChaGo-K-1 | 0.475 | 0.554 | 0.541 | 0.54 | 0.42 | 0.58 | 0.657 | 0.643 | 0.627 | 0.547 | 0.545 | 0.447 | 0.493 | 0.482 |  |  |  |  |  |
| NCI-H1623 | 0.619 | 0.501 | 0.602 | 0.21 | 0.709 | 0.574 | 0.38 | 0.557 | 0.563 | 0.587 | 0.574 | 0.639 | 0.572 | 0.551 |  |  |  |  |  |
| HCC-44 |  |  |  |  |  |  |  |  |  | 0.171 | 0.297 | 0.269 | 0.306 | 0.0849 | 1.07 | 1.16 | 1.12 | 1.1 | 1.25 |
| SW 900 | 0.722 | 0.549 | 0.606 | 0.44 | 0.488 | 0.568 | 0.445 | 0.519 | 0.452 | 0.725 | 0.601 | 0.749 | 0.587 | 0.512 |  |  |  |  |  |
| IA-LM |  |  |  |  |  |  |  |  |  |  |  |  |  |  | 0.855 | 0.732 |  | 1.03 | 1.03 |
| A549 |  |  |  |  |  |  |  |  |  | 0.236 | 0.153 | 0.183 | 0.309 | 0.168 | 1.04 | 0.92 | 0.921 | 1.05 | 1.07 |
| LCLC-103H | 0.363 | 0.506 | 0.474 | 0.285 | 0.279 | 0.462 | 0.505 | 0.396 | 0.537 | 0.375 | 0.327 | 0.309 | 0.345 | 0.343 |  |  |  |  |  |
